{"source": "patent US9562082B2", "about": "“Production of glycoproteins with low N-glycolylneuraminic acid (Neu5Gc) content” (LEK Pharmaceuticals D.D., priority 2009, dated 2017)", "format_in_all_cases": "cell-based, Chinese hamster", "key": {"Recombinant CHO cells [1]": {"system": "Recombinant CHO cells", "test": "Neu5Gc content of glycoprotein secreted by CHO cells cultivated with medium additives (RP-HPLC of DMB-labelled sialic acids)", "text": "Recombinant CHO cells expressing high titres of the glycosylated human glycoproteins were cultivated in suspension culture using rich in-house standard medium without additives according to the invention. After 2 weeks of passages, the cells were first harvested and subsequently inoculated into the same medium, however, supplemented with a range of DMSO concentrations from 0.25% to 1.50% (w/v). The effect of DMSO on growth, productivity, degree of sialylation, and Neu5Gc content was studied.\n“One factor at the time”-experiments with different DMSO concentrations at 37° C. and 33° C., respectively, were performed at first in an attempt to determine the DMSO concentration and temperature which are best to minimise the Neu5Gc content on the glycoproteins secreted. To study the interaction between the parameters (i) DMSO concentration, (ii) time of DMSO addition, and (iii) time of the temperature shift (from 37° C. to 33° C.), further experiments were performed with the Design-Expert/Design-Ease programme (Stat-Ease, Inc., Minneapolis, Minn., USA) using the response surface method. Parameters (i), (ii), and (iii) were chosen as numeric factors and the axial points were set slightly out of already known ranges in order to cover a wide design space. One replicate on axial points, one replicate on factorial points and 4 centre points were performed. The results were analysed using the Design of Expert (DOE) software (Design-Expert, Version 7.1). The results of the shake flask experiments were confirmed in the Biostat®B bioreactor (Sartorius, B. Braun Biotech International, Germany). Exponentially growing cells were taken from cell culture flasks having a surface area of 225 cm^2 (Corning®Costar®). A Biostat®B bioreactor with a working volume of 5 litres was inoculated with 2×10^5 cells/ml. Cells were cultivated in a batch mode under standard conditions (37° C., pH 7.0, dissolved oxygen concentration (DOT) 50%) in the rich in-house standard medium supplemented with 0.75% (w/v) DMSO.\nIn order to study the effect of key intermediates of the metabolic pathway leading to the sialylation of the glycoproteins and consequently to the conversion of Neu5Ac to Neu5Gc, a two factorial minimal resolution IV design, which allows for the estimation of the main effects, was established. Said design allowed the determination which of the components NAcMan, NAcGlc, Man, Fru, and Gal has/have an impact on the degree of sialylation and conversion of Neu5Ac to Neu5Gc. To confirm the results from the DOE findings, the production medium was enriched with 8.75 mM NAcMan and 8.75 mM NAcGlc in combination with manganese (Mn^2+) salts in different concentrations, e.g., in the concentrations mentioned earlier in this application.\nAt the end of the batch culture the cells were removed. The glycoproteins were purified from the remaining harvests by means of immuno-affinity chromatography. Briefly, up to 2 mg of each of the glycoproteins per ml of the chromatographic resin (20-500 ml of the harvest) were loaded onto the column. Elution of the glycoproteins was performed with 0.1 M Na-phosphate buffer, pH 2.5. By adding 1 M Na-phosphate buffer, pH 7.5 (made up by a combination of Na2H-phosphate and NaH2-phosphate), the pH of the eluate was immediately adjusted to 7 and then stored for further analysis at below −60° C.\nSialic acids (Neu5Gc, Neu5Ac, Neu-5,7Ac2, Neu5Gc9Ac, Neu-5,9Ac2, Neu-5,8,9Ac3) were differentiated using highly sensitive RP-HPLC. Enzymatic desialylation with neuraminidase (a2-3,6,8,9-neuraminidase (Sialidase) from Arthrobacter ureafaciens, Roche, USA) released sialic acids. The released sialic acids were labelled with the fluorescent dye 1,2-diamino-4,5-methylenedioxybenzene (DMB). DMB-labelling is non-selective and therefore provides a pool of labelled sialic acid derivates in stoichiometric amounts. Derivates of the DMB-labelled sialic acids were separated on an RP-HPLC column using isocratic elution. […]"}, "Recombinant CHO cells [2]": {"system": "Recombinant CHO cells", "test": "Specific growth rate", "conditions": "DMSO 0.75, temperature 37", "protocol": "The specific growth rate was calculated following Equation 2 and represents the overall biomass accumulation under the growth curve from the beginning to the end of the batch process (expressed as a logarithmic value per day (day^−1)). Specific growth rate=ln(X2/X1)/(t2−t1) Equation 2 (X1 is the number of viable cells on day 0 and X2 the number of cells at the end of the repeated batches, respectively. t1 is time 0, and t2 is time 7 or the end day of the process, respectively.)"}, "Recombinant CHO cells [3]": {"system": "Recombinant CHO cells", "test": "Specific productivity (Qp)", "conditions": "DMSO 0.75, temperature 37", "protocol": "According to the optimal range of the DMSO concentration, a numerical and graphical optimisation was performed using DOE software (FIG. 3). A minimal content of Neu5Gc and a maximal content of the most acidic isoforms were chosen as very important parameters, while increased titres and growth rates were weighted as medium important parameters. The ramps were extended a little over the limits. […] The specific productivity (Qp) was calculated following Equation 1 and expressed as pg of glycoprotein/[…]=(P2-P1)/((X2+X1)*(t2-t1)/2) Equation 1 (P2 and P1 are concentrations of secreted glycoprotein at the end and at the beginning of the repeated batches, respectively; X1 and X2 are cell concentrations at the corresponding time points t1 and t2)."}}, "data": [{"smiles": "C[S+](C)[O-]", "note": "[DMSO, dimethyl sulfoxide]", "values": [{"measurement": "average Neu5Gc content for all glycoproteins tested", "setting": "Recombinant CHO cells [1]; 0.25% DMSO", "value": 1.46, "unit": "%"}, {"measurement": "average Neu5Gc content for all glycoproteins tested", "setting": "Recombinant CHO cells [1]; 0.5% DMSO", "value": 1.17, "unit": "%"}, {"measurement": "content of Neu5Gc lowered by", "setting": "Recombinant CHO cells [1]; 0.75% (w/v) DMSO, 5 litre bioreactor batch, vs batch without DMSO", "value": "50-60%"}, {"measurement": "average Neu5Gc content for all glycoproteins tested", "setting": "Recombinant CHO cells [1]; 0.75% DMSO", "value": 0.93, "unit": "%"}, {"measurement": "average Neu5Gc content for all glycoproteins tested", "setting": "Recombinant CHO cells [1]; 1% DMSO", "value": 0.88, "unit": "%"}, {"measurement": "average Neu5Gc content for all glycoproteins tested", "setting": "Recombinant CHO cells [1]; 1.25% DMSO", "value": 0.79, "unit": "%"}, {"measurement": "Neu5Gc content", "setting": "Recombinant CHO cells [1]; darbepoetin alfa, 0.75% (w/v) DMSO, FIG. 1b", "value": "about 0.9%"}, {"measurement": "content of Neu5Gc", "setting": "Recombinant CHO cells [1]; darbepoetin alfa, bioreactor batch process, 0.75% (w/v) DMSO", "value": "about 1%"}, {"measurement": "content of Neu5Gc", "setting": "Recombinant CHO cells [1]; darbepoetin alfa, shake flask batch process, 0.75% (w/v) DMSO", "value": "about 0.8%"}, {"measurement": "Specific growth rate, DOE point prediction", "setting": "Recombinant CHO cells [2]", "value": 0.54, "unit": "day⁻¹"}, {"measurement": "Specific productivity, DOE point prediction", "setting": "Recombinant CHO cells [3]", "value": 2.43, "unit": "pcd"}]}]}
